Reference: patent publication US12629406B2, “Alterations in endothelin receptors following hemorrhage and resuscitation by centhaquin” (MIDWESTERN UNIVERSITY, priority 2018, dated 2026)

Tests used:
IL-10 = experiment: Plasma IL-10 in hemorrhaged rats (ELISA); details: rat, in vivo
Method: Induction of Hemorrhagic Shock. Hemorrhage was induced by withdrawing blood from the femoral artery at a rate of approximately 0.5 to 1 mL/min until a MAP of 35 mmHg was reached. This MAP was maintained for 30 min by further withdrawal of blood, if necessary. The hemorrhagic shock model used in the present study is a well-established rodent model of manageable pressure hemorrhage (Buehler et al. 2000; Gulati et al. 1997a; Gulati and Sen 1998). The volume of blood loss was about approximately 8.0 ml in each rat and was similar in various groups, amounting to approximately 40% of the total blood. Measured hematocrit levels were similar in various groups. The duration of blood withdrawal was approximately 15 minutes.
Experimental design. […] The blood samples, for biochemical estimations, were collected at 30 minutes of resuscitation and cardiovascular parameters were monitored till 60 minutes after which the animal was sacrificed. […]

[1] = Renal blood perfusion in hemorrhaged rats with norepinephrine infusion to maintain MAP at 70 mmHg; type: in vivo, rat
Method: Experimental design. To determine the resuscitative effect of centhaquin on cardiovascular system in hemorrhagic shock, rats were randomly divided into three groups: Hemorrhaged rats were administered 100% shed blood volume of either normal saline (vehicle); 100% shed blood volume of either normal saline plus centhaquin (0.01 mg/kg) or 100% shed blood volume of either normal saline plus centhaquin (0.10 mg/kg) during the first 10 minutes of resuscitation. Additional experiments were also carried out where the amount of norepinephrine (a very commonly used vasopressor during resuscitation) required to maintain MAP at 70 mmHg in normal saline (NS) or centhaquin (0.01 mg/kg) treated rats (volume equal to blood loss) was determined.
The femoral vein was cannulated for drug administration, femoral artery was cannulated for measuring mean arterial pressure (MAP) and a laser Doppler flow probe was placed in the renal medulla to measure blood perfusion. Induction of hemorrhagic shock was initiated by withdrawing blood to maintain the MAP at 35 mmHg for 30 minutes. Norepinephrine infusion was carried out to bring and maintain the MAP to 70 mmHg. The effect of centhaquin on cardiovascular functions were measured before the induction of shock, 30 minutes after shock (hemorrhage) and 15, 30, 45, 60, 75 and 90 minutes after resuscitation. […]

[2] = 24 human subjects; cited from earlier work
[3] = cited from earlier work

## Cc1cccc(N2CCN(CCc3ccc4ccccc4n3)CC2)c1 [centhaquin, 2-[2-(4-(3-methyphenyl)-1-piperazinyl)]ethyl-quinoline]
IL-10
  plasma IL-10, hemorrhagic shock versus resuscitation with hypertonic saline or centhaquin: no statistically significant difference
[1]; hemorrhaged female rats, till the end of experiment
  renal blood perfusion compared to vehicle control following resuscitation: improved
[1]; hemorrhaged male rats
  renal blood perfusion compared to vehicle control following resuscitation: improved
[2]
  safety and tolerability: safe and was well tolerated
[3]; administered in one-fifth the volume of blood loss
  survival of hemorrhaged rats: improved the survival
[3]; rat model of hemorrhagic shock
  blood lactate: decreased blood lactate
  cardiac output (CO): significantly improved CO
  survival: improved survival
